Laboratory results as given in publication PMC11085077, “Designing Antitrypanosomal and Antileishmanial BODIPY Derivatives: A Computational and In Vitro Assessment” (Molecules, 2024).

How the values were obtained:
T. brucei BSF = assay: Antitrypanosomal activity, alamarBlue assay; format: cell-based, Trypanosoma brucei; settings: for Selectivity Index (SI) T. brucei: SI = IC50 MRC-5/IC50 parasite; for IC50: bloodstream form, 72 h incubation, alamarBlue, error reported as σ
Method: The in vitro antitrypanosomal and antileishmanial activity of the BODIPY derivatives were evaluated on the bloodstream form (BSF) of T. brucei and the promastigote form of L. major parasites. The toxicity of the compounds was determined after 72 h of incubation using the alamarBlue assay (for T. brucei) and the MTT assay (for L. major). The cytotoxicity of the compounds on a healthy human cell line (human lung fibroblast, MRC-5) was also determined after 72 h of incubation using the alamarBlue assay. The data were expressed as the half maximal inhibitory concentration (IC50). The selectivity index (SI) of each derivative was calculated by dividing the IC50 of MRC-5 cells into the IC50 of T. brucei or L. major.
T. brucei (Lister 427, antigenic type MiTat 1.2, clone 221a, bloodstream forms, “single marker” S427 (S16)) were cultured at 37 °C, 5% CO2 in HMI-9 medium supplemented with 10% heat-inactivated fetal bovine serum (hiFBS, Invitrogen, Carlsbad, CA, USA), as previously described.
The antitrypanosomal activity of the BODIPY derivatives was determined by the alamarBlue® assay (ThermoFisher Scientific, Waltham, MA, USA). The stock solutions of the compounds were prepared in DMSO and the final DMSO percentage in each well was adjusted to be less than 1%. A total of 2 × 10^4 parasites per mL were incubated at 37 °C, 5% CO2 in 96-well plates (50 μL/well) alone or in the presence of an increasing concentration of compounds for 72 h. A total of 20 μL of resazurin solution (110 ng/mL) was then added to each well, and the parasites were incubated for 4 h at 37 °C. Finally, cells were lysed with 50 μL per well of SDS 3%. The plate was incubated at 37 °C for an extra hour and then, fluorescence intensity was measured with an Infinite F200 plate reader (Tecan Austria, GmbH, Grödig, Austria), exciting at 550 nm and recording the emission at 590 nm. The results are expressed as the concentration of a compound that reduces cell growth by 50% versus untreated control cells (IC50). Data are presented as the average of at least three independent measurements, all conducted in triplicate conditions.

[1] = Solubility in water (statement); format: physicochemical
[2] = test system: MRC-5 cell line (human lung fibroblast); assay: Cytotoxicity, alamarBlue assay; format: cell-based; settings: 72 h incubation, error reported as σ
Method: The in vitro antitrypanosomal and antileishmanial activity of the BODIPY derivatives were evaluated on the bloodstream form (BSF) of T. brucei and the promastigote form of L. major parasites. The toxicity of the compounds was determined after 72 h of incubation using the alamarBlue assay (for T. brucei) and the MTT assay (for L. major). The cytotoxicity of the compounds on a healthy human cell line (human lung fibroblast, MRC-5) was also determined after 72 h of incubation using the alamarBlue assay. The data were expressed as the half maximal inhibitory concentration (IC50). The selectivity index (SI) of each derivative was calculated by dividing the IC50 of MRC-5 cells into the IC50 of T. brucei or L. major. MRC-5 cell line (human lung fibroblast) was grown in a monolayer at 37 °C, 5% CO2 in DMEM medium (1 g/L glucose) supplemented with 10% hiFBS, 100 U/mL penicillin, […] and 2 mM L-glutamine. Cytotoxicity was measured in MRC-5 through alamarBlue® assay (ThermoFisher Scientific). The stock solutions of the compounds were prepared in DMSO and the final DMSO percentage in each well was adjusted to be less than 1%. A total of 5 × 10^3 cells per mL were seeded in 96-well plates (100 μL/well) with 24 h of incubation time before compound addition at 37 °C, 5% CO2. Then, the compounds were added at increasing concentrations (from 0 to 100 μM) and the plates were incubated for 72 h. A total of 20 μL of resazurin solution (110 ng/mL) was added to each well and cells were incubated for 4 h. Then, cells were lysed with 50 μL/well of 3% SDS. The plate was incubated at 37 °C for an extra hour and then, the fluorescence intensity was measured at the Infinite F200 plate reader (TECAN Austria, GmbH), exciting at 550 nm and recording the emission at 590 nm. The results are expressed as the concentration of a compound that reduces cell growth by 50% versus untreated control cells (IC50). Data are presented as the average of at least three independent measurements, all conducted in triplicate conditions.

L. major promastigotes = assay: Antileishmanial activity, MTT-based assay; format: cell-based, Leishmania major; settings: for IC50: promastigotes, 72 h incubation, MTT, error reported as σ; for Selectivity Index (SI) L. major: SI = IC50 MRC-5/IC50 parasite
Method: The in vitro antitrypanosomal and antileishmanial activity of the BODIPY derivatives were evaluated on the bloodstream form (BSF) of T. brucei and the promastigote form of L. major parasites. The toxicity of the compounds was determined after 72 h of incubation using the alamarBlue assay (for T. brucei) and the MTT assay (for L. major). The cytotoxicity of the compounds on a healthy human cell line (human lung fibroblast, MRC-5) was also determined after 72 h of incubation using the alamarBlue assay. The data were expressed as the half maximal inhibitory concentration (IC50). The selectivity index (SI) of each derivative was calculated by dividing the IC50 of MRC-5 cells into the IC50 of T. brucei or L. major. L. major (MHOM/IL/80/Friedlin) promastigotes were cultured at 28 °C, 5% CO2 in modified RPMI-1640 medium (Invitrogen, Carlsbad, CA, USA) supplemented with 10% hiFBS [49]. Parasites were maintained in culture in their […] growth phase (below 2 million parasites per mL for T. brucei and 10 million parasites per mL for L. major). The antileishmanial activity of the BODIPY derivatives was assessed using an MTT-based assay (Sigma-Aldrich, St. Louis, MO, USA). The stock solutions of the compounds were prepared in DMSO and the final DMSO percentage in each well was adjusted to be less than 1%. A total of 4 × 10^6 parasites per mL were incubated at 28 °C in 96-well plates (50 μL/well) alone or in the presence of an increasing concentration of compounds DMSO for 72 h. A total of 10 μL of MTT (5 mg/mL) were added to each well and parasites were incubated for 4 h at 28 °C. Finally, cells were lysed with 50 μL/well of 20% SDS. The plate was incubated at 37 °C for an extra hour and then, absorbance was measured at the Infinite F200 plate reader (TECAN Austria, GmbH, Grödig, Austria) at a wavelength of 540 nm. The IC50 was calculated as described above. Data are presented as the average of at least three independent measurements, all conducted in triplicate conditions.

Trypanosoma brucei = settings: read-out: inhibitory concentration against T. brucei; cited from earlier work
Leishmania major = settings: read-out: inhibitory concentration against L. major; cited from earlier work

Row | SMILES | Selectivity Index (SI) T. brucei (T. brucei BSF) | IC50 (T. brucei BSF; Trypanosoma brucei) [µM] | solubility in water (in words) [1] | IC50 ([2]; MRC5, healthy human lung fibroblasts) [µM] | IC50 (L. major promastigotes; Leishmania major) [µM] | Selectivity Index (SI) L. major (L. major promastigotes) | IC50 (Trypanosoma brucei) [µM] | IC50 (Leishmania major) [µM] | IC50 (T. brucei BSF) [µM] | IC50 ([2]; healthy human lung fibroblasts) [µM] | IC50 (L. major promastigotes) [µM]
1 | CC1=C(I)C(C)=[N+]2C1=C(c1c3ccccc3cc3ccccc13)c1c(C)c(I)c(C)n1[B-]2(F)F [Compound 4c] | 1.72 | 28.1 ± 1.77 | low solubility in water | 48.2 ± 1.13 | > 50 | <0.96 |  |  |  |  | 
2 | CN(Cc1cnc2nc(N)nc(N)c2n1)c1ccc(C(=O)N[C@@H](CCC(=O)O)C(=O)O)cc1 [methotrexate] |  |  |  |  |  |  | 2.7 | 3.6 |  |  | 
3 | CC1=CC(C)=[N+]2C1=C(c1ccc3ccccc3n1)c1c(C)cc(C)n1[B-]2(F)F [Compound 1h] | 1.24 |  |  |  |  | <0.96 |  |  | 77.4 ± 3.46 | 95.6 ± 3.45 | > 100
